The source of these data is US11542274B1, “Therapeutic compounds and methods of use thereof” (AGENCY FOR SCIENCE, TECHNOLOGY AND RESEARCH (A*STAR), priority 2019, dated 2023).

The IC50 is the concentration needed to halve the response being measured.

In this experiment the target is truncated CRBN (319-427) (Homo sapiens (Human), UniProt Q96SW2). The experiment is described as follows: Fluorescence binding assay (fluorescence quenching), affinity to E3-CEREBLON (CRBN)-ubiquitin ligase. The settings on record: pH 6.5. The procedure: Fluorescence quenching end point measurements were performed in black polystyrene 384-plates on Tecan Safire monochromator reader with the following settings: excitation 280 nm; excitation bandwidth 10.0 nm; emission collection 340 nm; emission bandwidth 20.0 nm; high sensitivity flash mode; integration time 40 μS; delay 0 μm. All measurements were done in duplicates; GraphPad Prism 5.03 was used for data evaluation, curve fitting, plotting and determination of IC50 values.
truncated CRBN (319-427), sequence (Q96SW2 319-427): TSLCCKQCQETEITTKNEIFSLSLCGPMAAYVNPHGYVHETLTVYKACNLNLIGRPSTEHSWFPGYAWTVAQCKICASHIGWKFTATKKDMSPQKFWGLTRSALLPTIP
Serial dilutions of each tested ligands were mixed with truncated CRBN (319-427) to a final volume of 25 μL in the assay buffer (20 mM sodium phosphate buffer, pH 6.5, with 150 mM sodium chloride). The final concentration of CRBN in all assay will be 5-10 μM with DMSO level at 4%. A control lanes were prepared with only tested ligands without the addition of CRBN, top up with assay buffer to 25 μL. Plates were incubated for 5 minutes and analyzed using the monochromator plate reader.
IC50 is the compound concentration that causes 50% quenching of the desired activity.

With `O=C1Cc2cc(Cl)c(C(=O)N3CCCCC3)cc2N1` [Compound 030, 5-chloro-6-(piperidine-1-carbonyl)indolin-2-one], the IC50 (ubiquitination moiety) is > 300 µM.

On to `O=C1Cc2ccc(C(=O)Nc3ccncc3)cc2N1` [Compound 031, 2-oxo-N-(pyridin-4-yl)indoline-6-carboxamide], for which, where the note is “ubiquitination moiety”, the IC50 lay within 100 to 300 µM.

As to `O=C1Cc2ccc(NC(=O)c3ccncc3)cc2N1` [Compound 032, N-(2-oxoindolin-6-yl)isonicotinamide], the IC50 (ubiquitination moiety) lay within 100 to 300 µM.

On to `O=C1Cc2ccc(C(=O)NCc3cccnc3)cc2N1` [Compound 033, 2-oxo-N-(pyridin-3-ylmethyl)indoline-6-carboxamide], for which, under “ubiquitination moiety”, the IC50 was > 300 µM.

Regarding `O=C1Cc2ccc(OC3CCNCC3)cc2N1` [Compound 034, 6-(piperidin-4-yloxy)indolin-2-one], the IC50 (ubiquitination moiety) is > 300 µM.

On to `O=C1Cc2ccc(Oc3ccnc(Cl)n3)cc2N1` [Compound 035, 6-((2-chloropyrimidin-4-yl)oxy)indolin-2-one], for which the IC50 (ubiquitination moiety) is > 300 µM.

As for `COC(=O)COc1ccc2c(c1)NC(=O)C2` [Compound 036, methyl 2-((2-oxoindolin-6-yl)oxy)acetate], the IC50 (ubiquitination moiety) is > 300 µM.

`O=C1Cc2cccc(-c3ccncc3)c2N1` [Compound 037, 7-(pyridin-4-yl)indolin-2-one]: the IC50 (ubiquitination moiety) was > 300 µM.

In the case of `O=C1Cc2c(cccc2-c2ccncc2)N1` [Compound 038, 4-(pyridin-4-yl)indolin-2-one], the IC50 (ubiquitination moiety) is > 300 µM.

In the case of `O=C1Cc2cc(-c3ccncc3)ccc2N1` [Compound 039, 5-(pyridin-4-yl)indolin-2-one], the IC50 (ubiquitination moiety) fell in the range of 100 to 300 µM.

As to `COc1cc(-c2ccc3c(c2)CC(=O)N3)ccn1` [Compound 041, 5-(2-methoxypyridin-4-yl)indolin-2-one], the IC50 (ubiquitination moiety) was > 300 µM.

Take `Cc1cc(N)ncc1-c1ccc2c(c1)CC(=O)N2` [Compound 043, 5-(6-amino-4-methylpyridin-3-yl)indolin-2-one]: the IC50 (ubiquitination moiety) fell in the range of 100 to 300 µM.

As for `Cc1nc(N)ccc1-c1ccc2c(c1)CC(=O)N2` [Compound 044, 5-(6-amino-2-methylpyridin-3-yl)indolin-2-one], the half-maximal inhibitory concentration (IC50) (ubiquitination moiety) lay in the range of 100 to 300 µM.

Consider `CNc1ccc(-c2ccc3c(c2)CC(=O)N3)cn1` [Compound 046, 5-(6-(methylamino)pyridin-3-yl)indolin-2-one], for which the IC50 (ubiquitination moiety) was 100 to 300 µM.

`CNc1cc(-c2ccc3c(c2)CC(=O)N3)ccn1` [Compound 047, 5-(2-(methylamino)pyridin-4-yl)indolin-2-one]: the IC50 (ubiquitination moiety) fell in the range of 100 to 300 µM.

With `CC(=O)Nc1ncc(-c2ccc3c(c2)CC(=O)N3)cc1C` [Compound 048, N-(3-methyl-5-(2-oxoindolin-5-yl)pyridin-2-yl)acetamide], the IC50 (ubiquitination moiety) is 100 to 300 µM.

As to `CC(=O)Nc1ccc(-c2ccc3c(c2)CC(=O)N3)c(C)n1` [Compound 049, N-(6-methyl-5-(2-oxoindolin-5-yl)pyridin-2-yl)acetamide], the IC50 (ubiquitination moiety) was > 300 µM.

The compound `CC(=O)Nc1cc(C)c(-c2ccc3c(c2)CC(=O)N3)cn1` [Compound 050, N-(4-methyl-5-(2-oxoindolin-5-yl)pyridin-2-yl)acetamide] gave an IC50 (ubiquitination moiety) of 1 to 100 µM.

`O=C1Cc2cc(-c3ccccc3)ccc2N1` [Compound 051, 5-phenylindolin-2-one]: for the setting “ubiquitination moiety”, the IC50 was > 300 µM.

Consider `CC(C)(C)OC(=O)N1CCN(C(=O)c2ccc(-c3ccc4c(c3)CC(=O)N4)cc2)CC1` [Compound 052, tert-butyl 4-(4-(2-oxoindolin-5-yl)benzoyl)piperazine-1-carboxylate], for which the IC50 (ubiquitination moiety) was > 300 µM.

For the compound `CC(C)(C)OC(=O)N1CCN(C(=O)c2cccc(-c3ccc4c(c3)CC(=O)N4)c2)CC1` [Compound 053, tert-butyl 4-(3-(2-oxoindolin-5-yl)benzoyl)piperazine-1-carboxylate], for the setting “ubiquitination moiety”, the IC50 was 1 to 100 µM.

With `O=C1Cc2cc(-c3ccc(C(=O)N4CCNCC4)cc3)ccc2N1` [Compound 054, 5-(4-(piperazine-1-carbonyl)phenyl)indolin-2-one], the IC50 (ubiquitination moiety) was in the range of 100 to 300 µM.

The compound `O=C1Cc2cc(-c3cccc(C(=O)N4CCNCC4)c3)ccc2N1` [Compound 055, 5-(3-(piperazine-1-carbonyl)phenyl)indolin-2-one] came in with an IC50 (ubiquitination moiety) of 100 to 300 µM.

For the compound `O=C1Cc2cc(-c3cccnc3)ccc2N1` [Compound 056, 5-(pyridin-3-yl)indolin-2-one], the IC50 (ubiquitination moiety) lay within 100 to 300 µM.

Take `O=C1Cc2cc(-c3ccc(N4CCCCC4)nc3)ccc2N1` [Compound 057, 5-(6-(piperidin-1-yl)pyridin-3-yl)indolin-2-one]: the IC50 (ubiquitination moiety) is > 300 µM.

Turning to `O=C1Cc2cc(C(=O)N3CCCCC3)ccc2N1` [Compound 058, 5-(piperidine-1-carbonyl)indolin-2-one], the IC50 (ubiquitination moiety) fell in the range of 100 to 300 µM.

`O=C1Cc2cc(NC(=O)c3ccncc3)ccc2N1` [Compound 059, N-(2-oxoindolin-5-yl)isonicotinamide] returned an IC50 (ubiquitination moiety) of 100 to 300 µM.

For `CC(=O)N1CCC(C(=O)Nc2ccc3c(c2)CC(=O)N3)CC1` [Compound 060, 1-acetyl-N-(2-oxoindolin-5-yl)piperidine-4-carboxamide], for the setting “ubiquitination moiety”, the IC50 lay within 100 to 300 µM.

As to `O=C1Nc2cc(-c3ccncc3)ccc2C1(F)F` [Compound 061, 3,3-difluoro-6-(pyridin-4-yl)indolin-2-one], the IC50 (ubiquitination moiety) is > 300 µM.

For the compound `CC1(C)C(=O)Nc2cc(-c3ccncc3)ccc21` [Compound 062, 3,3-dimethyl-6-(pyridin-4-yl)indolin-2-one], the IC50 (ubiquitination moiety) is > 300 µM.

For `O=C1Cc2ccc(C3=CCN(C(=O)OCc4ccccc4)CC3)cc2N1` [Compound 063, benzyl 4-(2-oxoindolin-6-yl)-3,6-dihydropyridine-1(2H)-carboxylate], where the note is “ubiquitination moiety”, the IC50 is > 300 µM.

`O=C1Cc2ccc(-c3ccc(N4CCCCC4)nc3)cc2N1` [Compound 064, 6-(6-(piperidin-1-yl)pyridin-3-yl)indolin-2-one]: for the setting “ubiquitination moiety”, the IC50 was > 300 µM.

Regarding `O=C1Cc2ccc(-c3ccc(N4CCNCC4)nc3)cc2N1` [Compound 065, 6-(6-(piperazin-1-yl)pyridin-3-yl)indolin-2-one], the half-maximal inhibitory concentration (IC50) (ubiquitination moiety) is > 300 µM.

Turning to `CCOC(=O)c1cc(-c2ccc3c(c2)NC(=O)C3)ccn1` [Compound 066, ethyl 4-(2-oxoindolin-6-yl)picolinate], the IC50 (ubiquitination moiety) is > 300 µM.

On to `CN1CCN(C(=O)c2ccc3c(c2)CC(=O)N3)CC1` [Compound 067, 5-(4-methylpiperazine-1-carbonyl)indolin-2-one], for which the IC50 (ubiquitination moiety) is > 300 µM.

Under “ubiquitination moiety”, `O=C1Cc2cc(C(=O)N3CCC(c4ccccc4)CC3)ccc2N1` [Compound 068, 5-(4-phenylpiperidine-1-carbonyl)indolin-2-one] gave an IC50 of 100 to 300 µM.

`O=C1Cc2cc(C(=O)N3CCC(Cc4ccccc4)CC3)ccc2N1` [Compound 069, 5-(4-benzylpiperidine-1-carbonyl)indolin-2-one]: the IC50 (ubiquitination moiety) was > 300 µM.

Consider `O=C1Cc2ccc(-c3ccc(F)nc3)cc2N1` [Compound 070, 6-(6-fluoropyridin-3-yl)indolin-2-one], for which the IC50 (ubiquitination moiety) is > 300 µM.

With `O=C1Cc2ccc(NC(=O)c3cccnc3)cc2N1` [Compound 071, N-(2-oxoindolin-6-yl)nicotinamide], for the setting “ubiquitination moiety”, the IC50 was 100 to 300 µM.

Turning to `O=C1Cc2cc(NC(=O)c3cccnc3)ccc2N1` [Compound 072, N-(2-oxoindolin-5-yl)nicotinamide], the IC50 (ubiquitination moiety) was 100 to 300 µM.

As for `O=C1Cc2cc(-c3ccncc3)ncc2N1` [Compound 073, 5-(pyridin-4-yl)-1,3-dihydro-2H-pyrrolo[2,3-c]pyridin-2-one], the IC50 (ubiquitination moiety) is > 300 µM.

Consider `O=C1Cc2cnc(-c3ccncc3)cc2N1` [Compound 074, 6-(pyridin-4-yl)-1,3-dihydro-2H-pyrrolo[3,2-c]pyridin-2-one], for which, for the setting “ubiquitination moiety”, the IC50 was 100 to 300 µM.

Consider `O=C1Cc2ncc(-c3ccncc3)cc2N1` [Compound 075, 6-(pyridin-4-yl)-1,3-dihydro-2H-pyrrolo[3,2-b]pyridin-2-one], for which, for the setting “ubiquitination moiety”, the IC50 is > 300 µM.

Consider `O=C1Cc2cc(NC(=O)c3ccnc(F)c3)ccc2N1` [Compound 076, 2-fluoro-N-(2-oxoindolin-5-yl)isonicotinamide], for which, for the setting “ubiquitination moiety”, the IC50 was 100 to 300 µM.

On to `NC1CCN(C(=O)c2ccc3c(c2)NC(=O)C3)CC1` [Compound 077, 6-(4-aminopiperidine-1-carbonyl)indolin-2-one], for which, where the note is “ubiquitination moiety”, the IC50 is > 300 µM.

Regarding `NC1CCN(C(=O)c2ccc3c(c2)CC(=O)N3)CC1` [Compound 078, 5-(4-aminopiperidine-1-carbonyl)indolin-2-one], under “ubiquitination moiety”, the IC50 was > 300 µM.

As to `COC(=O)c1ccccc1-c1ccc2c(c1)NC(=O)C2` [Compound 079, methyl 2-(2-oxoindolin-6-yl)benzoate], under “ubiquitination moiety”, the IC50 was > 300 µM.

As for `NC1CCCN(C(=O)c2ccc3c(c2)NC(=O)C3)C1` (stereo not shown) [Compound 080, 6-(3-aminopiperidine-1-carbonyl)indolin-2-one], the IC50 (ubiquitination moiety) was > 300 µM.

For the compound `NC1CCCN(C(=O)c2ccc3c(c2)CC(=O)N3)C1` (stereo not shown) [Compound 081, 5-(3-aminopiperidine-1-carbonyl)indolin-2-one], the IC50 (ubiquitination moiety) is > 300 µM.

As for `CC(C)C1C(=O)Nc2ccc(-c3ccncc3)cc21` (stereo not shown) [Compound 082, 3-isopropyl-5-(pyridin-4-yl)indolin-2-one], the IC50 (ubiquitination moiety) is > 300 µM.

As to `CN1C(=O)Cc2cc(C(=O)N3CCCCC3)ccc21` [Compound 083, 1-methyl-5-(piperidine-1-carbonyl)indolin-2-one], the IC50 (ubiquitination moiety) was > 300 µM.

The compound `[N-]=[N+]=NCCOCCOCCOCCNC(=O)c1cc(-c2ccc3c(c2)NC(=O)C3)ccn1` [Compound 084, N-(2-(2-(2-(2-azidoethoxy)ethoxy)ethoxy)ethyl)-4-(2-oxoindolin-6-yl)picolinamide] registered an IC50 (ubiquitination moiety and linker) of 1 to 100 µM.
